Data set [1] is described as follows: acute toxicity (DL50 i.p.). The settings on record: for DL50/DE50: toxic/active dose ratio.
The next data set concerns Swiss male mice. Nature of the data set: rota-rod test (muscle relaxant activity). Format: in vivo. To be noted: for Resistance time (sec. M ± S.E.): thirty minutes before the test. As to the method:
Muscle relaxant activity was evaluated with the rota-rod test. Swiss male mice weighing 20-25 g were treated intraperitoneally with the β-D isomer of compound (Ib) at doses of 1-3-10 mg/kg, thirty minutes before the test. Relaxant activity on striated muscles was evaluated by testing the resistance of the mice to the stimuli of a rotating plane revolving at increasing rate, from 2 to 50 r.p.m.

The mark [2] stands for this setting: rota-rod, mice, dose 1 mg/Kg i.p.
[3] abbreviates: rota-rod, mice, dose 3 mg/Kg i.p.
[4] abbreviates: rota-rod, mice, dose 10 mg/Kg i.p.
Where [5] appears, read: rota-rod, mice, i.p., Table 1, with limits in brackets.

`COc1c(O[C@@H]2OC[C@@H](O)[C@H](O)[C@H]2O)cc2c(c1OC)-c1ccc(SC)c(=O)cc1C(NC(C)=O)CC2` (single isomer, unassigned) [Compound (Ib) isomer β-D, 3-O-β-D-xylopyranosyl-3-O-demethylthiocolchicine]: the DL50 in data set [1] (Table 2) was 80 mg/kg i.p; in data set [1] (i.p.), 80 (63-94) mg/kg. Moreover, the DL50/DE50 in data set [1] (i.p.) was 35.87. Also, the DE50 was 2.23 mg/kg i.p with Swiss male mice (Table 2) and 2.23 (1.84-2.82) mg/Kg with Swiss male mice (setting [5]). Also, the “muscle relaxant activity compared with thiocolchicoside” value with Swiss male mice (rota-rod, mice, 1-3-10 mg/kg i.p.) is “more active than thiocolchicoside”. Moreover, the “Resistance time (sec. M ± S.E.)” value in the data set with Swiss male mice (setting [2]) was 270 ± 19 s; with Swiss male mice (setting [3]) it was 175 ± 14 s; in the data set with Swiss male mice (setting [4]), 80 ± 10 s.
With `COc1c(O[C@@H]2O[C@H](CO)[C@@H](O)[C@H](O)[C@H]2O)cc2c(c1OC)-c1ccc(SC)c(=O)cc1[C@@H](NC(C)=O)CC2` [Thiocolchicoside isomer β-D, 3-demethyl-thiocolchicine glucoside, reference compound], the DL50 in data set [1] (Table 2) is listed as 20 mg/kg i.p; in data set [1] (i.p.) it was 20 mg/kg. Further, in data set [1] (i.p.), the DL50/DE50 amounted to 4.47. For the same compound, the values for the DE50 in the data set with Swiss male mice (Table 2) and in the data set with Swiss male mice (setting [5]) were 4.47 mg/kg i.p and 4.47 (3.16-7.01) mg/Kg, respectively. Moreover, the “Resistance time (sec. M ± S.E.)” value with Swiss male mice (setting [2]) was determined as 345 ± 20 s; in the data set with Swiss male mice (setting [3]), 265 ± 17 s; with Swiss male mice (setting [4]), 110 ± 12 s.

The values are drawn from patent US7683163B2, “Colchicoside analogues” (priority 2003, dated 2010).
